Test [1] deals with T1, pseudo-kinase domain (JH2) of human V617F mutant JAK2 (Homo sapiens, UniProt O60674, F794H/V617F/W659A/W777A).
T1 construct: pseudo-kinase domain (JH2, amino-acids 536-812 with 3 surface mutations W659A, W777A, F794H); His (C); purchased BPS Bioscience 79498; host or cells: baculovirus expression system
In words: JAK2 LanthaScreen JH2-V617F Binding Assay. Particulars: 50 nM Fluorescent JAK2-JH2 Tracer, 1 hour at 25° C. The procedure:
(§1) Example C. JAK2 LanthaScreen JH2-V617F Binding Assay JAK2 JH2-V617F binding assay utilizes pseudo-kinase domain (JH2, amino-acids 536-812 with 3 surface mutations […]) of human V617F mutant JAK2 expressed as C-terminal His-Avi-tagged, biotinylated protein in a baculovirus expression system (BPS Bioscience, Catalog #79498). The assay was conducted in black 384-well polystyrene plates in a final reaction volume of 20 μL. JAK2 JH2-V617F (0.26 nM) was incubated with compounds (100 nL serially diluted in DMSO) in the presence of 50 nM Fluorescent JAK2-JH2 Tracer (MedChem Express Catalog #HY-102055) and 0.25 nM Streptavidin-Tb cryptate (Cisbio Part #610SATLB) in assay buffer (50 mM Tris, pH=7.5, 10 mM MgCl2, 0.01% Brij-35, 0.1% BSA, 1 mM EGTA, 5% Glycerol and 5 mM DTT). Non-specific binding was accessed in the presence of 2 mM ATP. After incubation for 1 hour at 25° C., LanthaScreen signals were read on a PHERAstar FS plate reader (BMG LABTECH). Data was analyzed with IDBS XLfit and GraphPad Prism 5.0 software using a four parameter dose response curve to determine IC50 for each compound.
A general note: TR-FRET usually uses a lanthanide donor and a delayed reading to cut background.

Test [2] has as its target T2, pseudo-kinase domain (JH2) of human Wild Type JAK2 (Homo sapiens, UniProt O60674, F794H/W659A/W777A).
T2 construct: pseudo-kinase domain (JH2, amino-acids 536-812 with 3 surface mutations W659A, W777A, F794H); His (C); purchased BPS Bioscience 79463; host or cells: baculovirus expression system
Kind of test: JAK2 LanthaScreen JH2-WT Binding Assay. As to conditions: 50 nM Fluorescent JAK2-JH2 Tracer, 1 hour at 25° C. The procedure: as §1, with “Example B.” for “Example C.”, “LanthaScreen JH2-WT” for “LanthaScreen JH2-V617F”, “JAK2 JH2-WT” for “JAK2 JH2-V617F”, “human Wild Type” for “human V617F mutant”, “Catalog #79463).” for “Catalog #79498).”, “JAK2 JH2-WT (0.145” for “JAK2 JH2-V617F (0.26”

The target in test [3] is T3, catalytic domain (JH1) of human JAK2 (Homo sapiens, UniProt O60674).
T3 construct: catalytic domain (JH1, amino acids 826-1132) of human JAK2; FLAG (N); purchased Carna Biosciences 08-445-20N; host or cells: baculovirus expression system
In words: JAK2 LanthaScreen JH1 Binding Assay. As to conditions: 50 nM Fluorescent JAK2-JH1 Tracer, 2 hours at 25° C. The procedure:
Example A. JAK2 LanthaScreen […] Binding Assay JAK2 JH1 binding assay utilizes catalytic domain (JH1, amino acids 826-1132) of human JAK2 expressed as N-terminal FLAG-tagged, biotinylated protein in a baculovirus expression system (Carna Biosciences, Product #08-445-20N). The assay was conducted in black 384-well polystyrene plates in a final reaction volume of 20 μL. JAK2 JH1 (1.5 nM) was incubated with compounds (100 nL serially diluted in DMSO) in the presence of 50 nM Fluorescent JAK2-JH1 Tracer and 0.5 nM Streptavidin-Tb cryptate (Cisbio Part #610SATLB) in assay buffer (50 mM Tris, pH=7.5, 10 mM MgCl2, 0.01% Brij-35, 0.1% BSA, 1 mM EGTA, 5% Glycerol and 5 mM DTT). Non-specific binding was accessed in the presence of 2 mM ATP. After incubation for 2 hours at 25° C., LanthaScreen signals were read on a PHERAstar FS plate reader (BMG LABTECH). Data was analyzed with IDBS XLfit and GraphPad Prism 5.0 software using a four parameter dose response curve to determine IC50 for each compound.

IC50 data for 16 compounds are collected here from US11919908B2, “Substituted pyrrolo[2,3-d]pyrimidine compounds as JAK2 V617F inhibitors” (Incyte Corporation, priority 2020, dated 2024).

T1 sequence (O60674 536-812 V617F/W659A/W777A/F794H): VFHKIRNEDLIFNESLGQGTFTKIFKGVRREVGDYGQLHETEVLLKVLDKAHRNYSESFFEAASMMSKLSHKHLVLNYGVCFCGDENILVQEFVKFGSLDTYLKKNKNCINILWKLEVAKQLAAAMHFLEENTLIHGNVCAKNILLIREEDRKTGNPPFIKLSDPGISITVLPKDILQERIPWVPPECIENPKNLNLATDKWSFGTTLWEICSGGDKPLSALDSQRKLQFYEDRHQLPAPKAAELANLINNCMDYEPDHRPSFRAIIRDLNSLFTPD
T3 sequence (O60674 826-1132): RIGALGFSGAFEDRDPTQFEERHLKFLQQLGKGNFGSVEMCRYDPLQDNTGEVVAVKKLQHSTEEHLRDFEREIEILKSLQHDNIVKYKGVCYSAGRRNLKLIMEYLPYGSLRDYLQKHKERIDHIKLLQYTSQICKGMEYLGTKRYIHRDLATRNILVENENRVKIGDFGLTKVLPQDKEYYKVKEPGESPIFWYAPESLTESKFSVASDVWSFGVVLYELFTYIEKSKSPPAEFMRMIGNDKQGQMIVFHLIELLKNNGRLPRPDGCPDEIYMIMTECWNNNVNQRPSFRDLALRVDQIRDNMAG
T2 sequence (O60674 536-812 W659A/W777A/F794H): as the sequence (O60674 536-812 V617F/W659A/W777A/F794H) above, with F82V counted along it

As a reminder, the IC50 is the point on the concentration scale where inhibition reaches its midpoint. Low readings indicate inhibition by little substance, high ones a need for much substance. Regarding `CN(C)S(=O)(=O)c1ccc(-c2[nH]c3nc(N)[nH]c(=O)c3c2-c2cccc3c2OCO3)cc1` [Example 44, 4-(2-Amino-5-(benzo[d] [1,3]dioxol-4-yl)-4-oxo-4,7-dihydro-3H-pyrrolo[2,3-d]pyrimidin-6-yl)-N,N-dimethylbenzene sulfonamide], the IC50 in test [1] is 0.1 to 0.5 µM; in test [2], 0.1 to 0.5 µM; in test [3], over 2.5 µM.
With `CN(C)S(=O)(=O)c1ccc(-c2[nH]c3nc(N)[nH]c(=O)c3c2-c2cccc3c2OCC(=O)N3)cc1` [Example 48, 4-(2-Amino-4-oxo-5-(3-oxo-3,4-dihydro-2H-benzo[b][1,4]oxazin-8-yl)-4,7-dihydro-3H-pyrrolo[2,3-d]pyrimidin-6-yl)-N,N-dimethylbenzenesulfonamide], the IC50 in test [1] is 0.1 to 0.5 µM; in test [2] it was 0.1 to 0.5 µM; in test [3] it was over 2.5 µM.
On to `Cc1cccc(-c2c(-c3ccc(S(=O)(=O)N(C)C)cc3)[nH]c3nc(N)[nH]c(=O)c23)c1` [Example 2, 4-(2-Amino-4-oxo-5-(3-tolyl)-4,7-dihydro-3H-pyrrolo[2,3-d]pyrimidin-6-yl)-N,N-dimethylbenzenesulfonamide], for which the figures for the IC50 in test [1], in test [2] and in test [3] were 0.5 to 1 µM, 0.5 to 1 µM and 1 to 2.5 µM, respectively.
With `COc1c(Cl)cccc1-c1c(-c2ccc(S(=O)(=O)N(C)C)cc2)[nH]c2nc(N)[nH]c(=O)c12` [Example 40, 4-(2-Amino-5-(3-chloro-2-methoxyphenyl)-4-oxo-4,7-dihydro-3H-pyrrolo[2,3-d]pyrimidin-6-yl)-N,N-dimethylbenzene sulfonamide], the IC50 in test [1], in test [2] and in test [3] was over 2.5 µM throughout.
For `CN(C)S(=O)(=O)c1ccc(-c2[nH]c3nc(N)[nH]c(=O)c3c2-c2ccc(C(F)F)cc2)cc1` [Example 9, 4-(2-Amino-5-(4-(difluoromethyl)phenyl)-4-oxo-4,7-dihydro-3H-pyrrolo [2,3-d]pyrimidin-6-yl)-N,N-dimethylbenzene sulfonamide], the IC50 was 0.5 to 1 µM in test [1], 0.5 to 1 µM in test [2] and 1 to 2.5 µM in test [3].
As for `CN(C)S(=O)(=O)c1ccc(-c2[nH]c3nc(N)[nH]c(=O)c3c2-c2cnn(Cc3ccc(C(=O)O)cc3)c2)cc1` [Example 52, 4-((4-(2-amino-6-(4-(N,N-dimethylsulfamoyl)phenyl)-4-oxo-4,7-dihydro-3H-pyrrolo[2,3-d]pyrimidin-5-yl)-1H-pyrazol-1-yl)methyl)benzoic acid], the IC50 in test [1] is 0.1 to 0.5 µM; in test [2], 0.1 to 0.5 µM; in test [3] it was over 2.5 µM.
As to `CN(C)S(=O)(=O)c1ccc(-c2[nH]c3nc(N)[nH]c(=O)c3c2-c2ccc(C#N)cc2)cc1` [Example 39, 4-(2-Amino-5-(4-cyanophenyl)-4-oxo-4,7-dihydro-3H-pyrrolo[2,3-d]pyrimidin-6-yl)-N,N-dimethylbenzene sulfonamide], the figures for the IC50 in test [1], in test [2] and in test [3] were 1 to 2.5 µM, 0.5 to 1 µM and over 2.5 µM, respectively.
For `CN(C)S(=O)(=O)c1ccc(-c2[nH]c3nc(N)[nH]c(=O)c3c2-c2ccccc2CC#N)cc1` [Example 15, 4-(2-Amino-5-(2-(cyanomethyl)phenyl)-4-oxo-4,7-dihydro-3H-pyrrolo[2,3-d]pyrimidin-6-yl)-N,N-dimethylbenzene sulfonamide], the IC50 in test [1], in test [2] and in test [3] was over 2.5 µM throughout.
Take `COc1ccccc1-c1c(-c2ccc(C(=O)N(C)C)cc2)[nH]c2nc(N)[nH]c(=O)c12` [Example 56, 4-(2-Amino-5-(2-methoxyphenyl)-4-oxo-4,7-dihydro-3H-pyrrolo[2,3-d]pyrimidin-6-yl)-N,N-dimethylbenzamide]: the IC50 in test [1] is 0.5 to 1 µM; in test [2], 0.5 to 1 µM; in test [3], over 2.5 µM.
Turning to `COc1ccccc1-c1c(-c2ccc(C(=O)N3CCOCC3)cc2)[nH]c2nc(N)[nH]c(=O)c12` [Example 54, 2-Amino-5-(2-methoxyphenyl)-6-(4-(morpholine-4-carbonyl)phenyl)-3,7-dihydro-4H-pyrrolo[2,3-d]pyrimidin-4-one], the IC50 in test [1] was 0.5 to 1 µM; in test [2] it was 0.5 to 1 µM; in test [3], over 2.5 µM.
`COc1ccccc1-c1c(-c2ccc(S(=O)(=O)N(C)C)cc2)[nH]c2nc(N)[nH]c(=O)c12` [Example 65, 4-(2-Amino-5-(2-methoxyphenyl)-4-oxo-4,7-dihydro-3H-pyrrolo[2,3-d]pyrimidin-6-yl)-N,N-dimethylbenzene-sulfonamide]: the IC50 in test [1] is 0.1 to 0.5 µM; in test [2] it was 0.1 to 0.5 µM; in test [3], over 2.5 µM.
In the case of `CN(C)S(=O)(=O)c1ccc(-c2[nH]c3nc(N)[nH]c(=O)c3c2-c2cccc3c2OCC3)cc1` [Example 41, 4-(2-Amino-5-(2,3-dihydrobenzofuran-7-yl)-4-oxo-4,7-dihydro-3H-pyrrolo[2,3-d]pyrimidin-6-yl)-N,N-dimethylbenzene sulfonamide], the IC50 in test [1] is 0.1 to 0.5 µM; in test [2], 0.1 to 0.5 µM; in test [3], over 2.5 µM.
Regarding `CN(C)S(=O)(=O)c1ccc(-c2[nH]c3nc(N)[nH]c(=O)c3c2-c2cnn(Cc3ccncc3)c2)cc1` [Example 32, 4-(2-Amino-4-oxo-5-(1-(pyridin-4-ylmethyl)-1H-pyrazol-4-yl)-4,7-dihydro-3H-pyrrolo[2,3-d]pyrimidin-6-yl)-N,N-dimethylbenzene sulfonamide], the IC50 in test [1] is 1 to 2.5 µM; in test [2] it was 1 to 2.5 µM; in test [3], over 2.5 µM.
On to `CN(C)S(=O)(=O)c1ccc(-c2[nH]c3nc(N)[nH]c(=O)c3c2-c2cccc(CO)c2)cc1` [Example 4, 4-(2-Amino-5-(3-(hydroxymethyl)phenyl)-4-oxo-4,7-dihydro-3H-pyrrolo [2,3-d]pyrimidin-6-yl)-N,N-dimethyl-benzene sulfonamide], for which the figures for the IC50 in test [1], in test [2] and in test [3] were 0.5 to 1 µM, 0.5 to 1 µM and 1 to 2.5 µM, respectively.
Turning to `CC(C)c1cccc(-c2c(-c3ccc(S(=O)(=O)N(C)C)cc3)[nH]c3nc(N)[nH]c(=O)c23)c1` [Example 6, 4-(2-Amino-5-(3-isopropylphenyl)-4-oxo-4,7-dihydro-3H-pyrrolo [2,3-d]pyrimidin-6-yl)-N,N-dimethylbenzene sulfonamide], the IC50 in test [1], in test [2] and in test [3] was over 2.5 µM in each case.
On to `CN(C)S(=O)(=O)c1ccc(-c2[nH]c3nc(N)[nH]c(=O)c3c2-c2cccc3c2OCCN3)cc1` [Example 49, 4-(2-Amino-5-(3,4-dihydro-2H-benzo[b][1,4]oxazin-8-yl)-4-oxo-4,7-dihydro-3H-pyrrolo[2,3-d]pyrimidin-6-yl)-N,N-dimethylbenzenesulfonamide], for which the IC50 was 0.5 to 1 µM in test [1], 0.5 to 1 µM in test [2] and over 2.5 µM in test [3].
